Several values for one entry are separate records, joined by “and”; a condition that tells them apart may be missing. Identical values can stand only once.
Tests used:
[1] = in words; background statement; cited from earlier work
[2] = system: glutathione peroxidase; assay: Serum glutathione peroxidase (gSH-Px) activity in selenium-deficient pigs (Table 1); assay type: in vivo
Experimental: (§1) The new type of preparation containing sodium selenite and ferric dextran was administered intramuscularly to three pigs, weight 15 . . . 25 kg, suffering from selenium deficiency. Another three pigs suffering from selenium deficiency were given the same dose of sodium selenite. Serum selenium content and glutathione peroxidase enzyme activity were determined as a measure of the bioactivity of selenium in the organism. […] All the pigs were on the same diet throughout the test period.
(§2) Animals 1, 2 and 3 received 0.06 mg Se per kg body weight intramuscularly
(§3) Animals 4, 5 and 6 received 0.06 mg Se per kg body weight intramuscularly
(§4) as sodium selenite combined with ferric dextran, 200 mg Fe per dose.

[3] = Serum selenium content in selenium-deficient pigs (Table 1); assay type: in vivo; details: 0.06 mg Se/kg i.m.
Experimental: as §1, §2, §3, §4

[4] = Serum selenium level in newborn piglets (Table 2); assay type: in vivo
Experimental: (§5) Six newborn piglets weighing about 1 kg were given an intramuscular dose of 2 ml of the new iron-selenium preparation, each ml containing 100 mg Fe^+3 as ferric dextran and 0.15 mg Se^+4 as sodium selenite. […] This was in spite of the fact that the animals were fed on milk from a sow kept on a low-selenium diet during this period. Five similar piglets, given the same diet, formed the control group. The control animals were given 200 mg Fe^+3 ferric dextran intramuscularly at the same time as injection of the test group. Four weeks later, mean selenium levels of 55.4 ng/ml and a mean glutathione perioxidase activity of 710.8 IU/l were found in their serum. The differences between the mean values of the test group and the control group were statistically significant, the glutathione peroxidase difference at the 99% confidence interval and the Se difference at the 95% interval (Wilcoxson-Mann-Whitney rank sum test).
(§6) 0.3 mg/Se/kg together with 200 mg Fe^+3

[5] = system: erythrocyte count; assay: Increase in erythrocyte count in piglets, electronic counter; assay type: in vivo; details: eight days after injection of 200 mg Fe^+3 as ferric dextran, with or without Se^+4 0.15 mg/ml (2 ml, s.c. in test group); difference significant at 95% confidence interval
Experimental: (§7) In another study, two sows were kept on a low-selenium diet during the last four weeks of pregnancy and during lactation. The 25 piglets born alive were divided at the age of three days into two groups (12+13), both groups containing piglets from both sows. Blood samples were taken from all piglets for determination of selenium and glutathione peroxidase values and for blood cell counts. The test group (13 piglets) were given a subcutaneous injection of 200 mg (2 ml) Fe^+3 as ferric dextran, to which sodium selenite had been added to give a Se^+4 content of 0.15 mg/ml. The control group (12) received 200 mg Fe^+3 as ferric dextran without Se^+4. One piglet in the control group later died. After eight days, blood samples were taken from all piglets. […] The difference was statistically significant at the 95% confidence interval using the non-parametric Wilcoxson-Mann-Whitney rank sum test. […] This is an important finding that will play a major role in both human and veterinary medicine. The use of selenium in combination with iron is likely to increase considerably. […] Selenium is probably stored as an iron-selenium complex, which explains the unexpected sufficiency of a single dose given at an early stage up to a weight of about 8 . . . 10 kg.

[6] = Growth (weight increase) of piglets injected at three days; assay type: in vivo; details: in words; 200 mg Fe^+3 per animal; 3 weeks
Experimental: as §7

[7] = Serum selenium maintenance / selenium sufficiency in piglets injected at three days; assay type: in vivo; details: in words; 200 mg Fe^+3 per animal; 3 weeks
Experimental: as §7

[8] = system: glutathione peroxidase; assay: Serum glutathione peroxidase activity in newborn piglets (Table 2); assay type: in vivo
Experimental: as §5, §6

[9] = in words, four weeks after treatment
[10] = mean of five control piglets, serum, four weeks later, 200 mg Fe^+3 ferric dextran i.m.

| Compound | elimination of selenium from the organism [1] | half-life of selenium in the organism [1] | gSH-Px, 0-sample ([2]; individual pigs, 0-sample (before dosing), 0.06 mg Se/kg i.m., with ferric dextran 200 mg Fe per dose for animals 4-6) | gSH-Px at day 8 ([2]; individual pigs, day 8, 0.06 mg Se/kg i.m., with ferric dextran 200 mg Fe per dose for animals 4-6) | gSH-Px at day 15 ([2]; individual pigs, day 15, 0.06 mg Se/kg i.m., with ferric dextran 200 mg Fe per dose for animals 4-6) | Mean gSH-Px, 0-sample ([2]; mean of 3 pigs, 0-sample (before dosing), 0.06 mg Se/kg i.m.) | Mean gSH-Px at day 8 ([2]; mean of 3 pigs, day 8, 0.06 mg Se/kg i.m.) | Mean gSH-Px at day 15 ([2]; mean of 3 pigs, day 15, 0.06 mg Se/kg i.m.) | serum selenium level over 15 days ([3]; in words) | Mean Se, 0-sample ([3]; mean of 3 pigs, serum, 0-sample (before dosing)) | Mean Se at day 8 ([3]; mean of 3 pigs, serum, day 8, 11520 min) | Mean Se at day 15 ([3]; mean of 3 pigs, serum, day 15, 21600 min) | serum level of selenium four weeks later [4, 9] | mean selenium level, control group [4, 10] | mean increase in the erythrocyte count [5] | weight increase of control animals [6] | selenium status of control animals [7] | serum level of glutathione peroxidase four weeks later [8, 9] | mean glutathione peroxidase activity, control group [8, 10] |
| --- | --- | --- | --- | --- | --- | --- | --- | --- | --- | --- | --- | --- | --- | --- | --- | --- | --- | --- | --- |
| O=[Se]([O-])[O-].[Na+].[Na+] [sodium selenite] | rapidly eliminated | short | 373 IU/l and 298 IU/l and 325 IU/l | 1065 IU/l and 796 IU/l and 926 IU/l | 632 IU/l and 437 IU/l and 484 IU/l | 332 IU/l | 926 IU/l | 518 IU/l | remained elevated for only 8 days | 23 ng/mL | 49 ng/mL | 35 ng/mL | – | – | – | – | – | – | – |
| ferric dextran | – | – | – | – | – | – | – | – | – | – | – | – | indicate a deficiency state | 55.4 ng/mL | 1.41±0.30 10^12 /l | retardation in weight increase | severe selenium deficiency | indicate a deficiency state | 710.8 IU/l |
